Test results from publication PMC9329436, “Optimization of the 4-anilinoquin(az)oline scaffold as epidermal growth factor receptor (EGFR) inhibitors for chordoma utilizing a toxicology profiling assay platform” (Scientific Reports, 2022).
pIC50: −log10 of the molar value. Like-named read-outs stand apart in the source and are kept apart here.

How the values were obtained:
HL60 cells = test: AsedaSciences SYSTEMETRIC Cell Health Screen (flow cytometry toxicity profiling); settings: HL60, 4 h, 5 nM–100 µM; for CC: Cell Cycle score / CM: Cell morphology score / CMI: Cell membrane integrity score / GSH: Glutathione score / MMP: Mitochondrial membrane depolarization score / NMI1: Nuclear membrane integrity 1 score / NMI2: Nuclear membrane integrity 2 score / ROS: Reactive superoxide species score: probability 0–1, n = 2; for CHI: Cell Health Index: probability (0–1) of high-risk class, n = 2
Outline: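 Risk scores derive from a logistic-regression ML classifier comparing flow-cytometric stress phenotypes with those of 300 reference compounds of known high or low human risk. Phenotypes: light scatter plus fluorescent physiological dyes, twelve parameters, no gating. Compounds tested 5 nM–100 µM (3× steps, duplicate) on HL60 cells, 4 h, 37 °C.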

U-CH1 chordoma cell line [1] = settings: previously reported, Figure 1; cited from earlier work
U-CH2 chordoma cell line [2] = settings: previously reported, Figure 1; cited from earlier work
[3] = test system: UM-Chor1 patient-derived chordoma cell line; test: Cell viability assay (alamarBlue, 72 h), UM-Chor1; assay type: cell-based, human; settings: n = 4, 72 h
Procedure: (§1) Chordoma cell lines were cultured as described previously[10],[12],[33],[34]. Briefly, U-CH1 and U-CH2 cell lines were cultured in 4:1 IMDM:RPMI medium supplemented with 10% fetal bovine serum (FBS) and 1% penicillin/streptomycin in gel-coated flasks. […] CH22, UM-Chor1, U-CH12, and U-CH7 cell lines were cultured in RPMI medium supplemented with 10% FBS and 1% penicillin/streptomycin. The cell lines all undergo regular mycoplasma screening.
(§2) Cells were seeded in 384 well plates and were treated with test compound in quadruplicate 24 h after plating. Cell viability was assessed at 72 h using alamarBlue (ThermoFisher, USA). […] IC50 values were determined by four-parameter nonlinear regression analyses using GraphPad Prism™ version 8 software (San Diego, CA).

[4] = test system: U-CH7 patient-derived chordoma cell line; test: Cell viability assay (alamarBlue, 72 h), U-CH7; assay type: cell-based, human; settings: n = 4, 72 h
Procedure: as §1, §2

EGFR = EGFR (Homo sapiens, UniProt P00533); test: ProQinase in-cell EGFR assay (EGFR phosphorylation in A431 cells); assay type: cell-based; design: This cell line endogenously expresses a high level of EGFR; endogenous in cells; host or cells: A431
From the text: In addition, we ran an EGFR in-cell target engagement assay, measuring in-cell EGFR phosphorylation, using the human epidermoid carcinoma cell line A431. This cell line endogenously expresses a high level of EGFR, and stimulation of these cells with human epidermal growth factor (EGF) results in receptor tyrosine autophosphorylation.

U-CH1 chordoma cell line [5] = test: Cell viability assay (alamarBlue, 72 h), U-CH1; assay type: cell-based, human; settings: n = 4, 72 h
Outline: (§3)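 Compound added in quadruplicate 24 h after plating; cultures maintained in 4:1 IMDM:RPMI, 10% FBS, gel-coated flasks.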

[6] = test system: WS1 human fibroblast cell line; test: Cell viability assay, WS1 toxicity control; assay type: cell-based; settings: n = 4, nonspecific toxicity control
Procedure: as §2

[7] = test system: CH22 patient-derived chordoma cell line; test: Cell viability assay (alamarBlue, 72 h), CH22; assay type: cell-based, human; settings: n = 4, 72 h
Procedure: as §1, §2

[8] = test system: U-CH12 patient-derived chordoma cell line; test: Cell viability assay (alamarBlue, 72 h), U-CH12; assay type: cell-based, human; settings: n = 4, 72 h
Procedure: as §1, §2

U-CH2 chordoma cell line [9] = test: Cell viability assay (alamarBlue, 72 h), U-CH2; assay type: cell-based, human
Outline: as §3

[10] = ProQinase in-cell EGFR assay, A431 cells, n = 1

Sequence of EGFR (P00533 25-1210): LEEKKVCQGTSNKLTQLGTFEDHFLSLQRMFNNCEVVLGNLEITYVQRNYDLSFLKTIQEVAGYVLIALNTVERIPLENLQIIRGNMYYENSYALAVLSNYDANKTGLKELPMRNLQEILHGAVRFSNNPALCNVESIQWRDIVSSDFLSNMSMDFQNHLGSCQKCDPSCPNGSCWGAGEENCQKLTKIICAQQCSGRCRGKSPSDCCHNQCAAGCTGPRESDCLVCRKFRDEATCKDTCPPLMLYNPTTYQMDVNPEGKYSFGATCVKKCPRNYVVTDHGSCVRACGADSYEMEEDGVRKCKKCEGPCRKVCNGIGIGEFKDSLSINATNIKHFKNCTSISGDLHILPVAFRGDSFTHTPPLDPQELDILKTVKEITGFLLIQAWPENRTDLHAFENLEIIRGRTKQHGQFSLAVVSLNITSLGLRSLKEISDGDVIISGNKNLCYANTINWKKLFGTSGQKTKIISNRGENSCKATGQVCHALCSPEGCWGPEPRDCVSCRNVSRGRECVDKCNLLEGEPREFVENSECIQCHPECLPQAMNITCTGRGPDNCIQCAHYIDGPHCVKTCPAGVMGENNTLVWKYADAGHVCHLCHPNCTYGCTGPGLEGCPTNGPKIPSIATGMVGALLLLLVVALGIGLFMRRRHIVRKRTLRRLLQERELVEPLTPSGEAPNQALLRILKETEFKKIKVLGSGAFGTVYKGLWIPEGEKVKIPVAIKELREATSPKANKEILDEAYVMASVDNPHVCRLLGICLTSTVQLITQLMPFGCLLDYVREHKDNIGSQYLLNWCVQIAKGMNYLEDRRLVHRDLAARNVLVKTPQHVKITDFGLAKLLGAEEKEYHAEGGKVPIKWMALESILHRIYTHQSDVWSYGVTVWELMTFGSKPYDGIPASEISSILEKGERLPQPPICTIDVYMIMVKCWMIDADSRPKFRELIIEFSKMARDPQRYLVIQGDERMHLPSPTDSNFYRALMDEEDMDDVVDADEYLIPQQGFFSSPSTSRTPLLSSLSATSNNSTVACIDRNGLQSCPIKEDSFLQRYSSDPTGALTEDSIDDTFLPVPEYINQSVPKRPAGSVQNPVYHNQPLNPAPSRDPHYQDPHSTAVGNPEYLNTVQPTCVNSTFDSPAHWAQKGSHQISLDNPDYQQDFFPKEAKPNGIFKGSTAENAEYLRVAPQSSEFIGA

| pIC50 (EGFR; [10]) | SMILES | CC: Cell Cycle score (HL60 cells) | CM: Cell morphology score (HL60 cells) | CMI: Cell membrane integrity score (HL60 cells) | GSH: Glutathione score (HL60 cells) | MMP: Mitochondrial membrane depolarization score (HL60 cells) | NMI1: Nuclear membrane integrity 1 score (HL60 cells) | NMI2: Nuclear membrane integrity 2 score (HL60 cells) | ROS: Reactive superoxide species score (HL60 cells) | CHI: Cell Health Index (HL60 cells) | pIC50 (U-CH1 chordoma cell line [1]) | pIC50 (U-CH2 chordoma cell line [2]) | pIC50 (U-CH1 chordoma cell line [5]) | pIC50 [3] | pIC50 [4] | pIC50 [6] | pIC50 [7] | pIC50 [8] | pIC50 (U-CH2 chordoma cell line [9]; n = 4, 72 h) | also measured |
| --- | --- | --- | --- | --- | --- | --- | --- | --- | --- | --- | --- | --- | --- | --- | --- | --- | --- | --- | --- | --- |
| – | CN(C)C/C=C/C(=O)Nc1cc2c(Nc3ccc(F)c(Cl)c3)ncnc2cc1O[C@H]1CCOC1 [Afatinib, reference compound] | 0.93 | 1.00 | 1.00 | 1.00 | 1.00 | 1.00 | 0.99 | 1.00 | 0.92 | 7.00 | 5.19 | – | – | – | – | – | – | – | – |
| 7.72 | C#Cc1cccc(Nc2ncnc3cc(OC)c(OC)cc23)c1 [Compound 1, N-(3-ethynylphenyl)-6,7-dimethoxyquinazolin-4-amine] | 0.086 | 0.85 | 0.11 | 0.18 | 0.39 | 0.47 | 0.41 | 0.32 | 0.41 | 6.04 | < 4.30 | 6.20 | – | – | – | – | – | – | pIC50 ([3]; Homo sapiens): 4.55; pIC50 ([4]; Homo sapiens): 4.64; pIC50 (U-CH1 chordoma cell line [5]; Homo sapiens, UCH1, 72 h): > 6.00; pIC50 ([6]; Homo sapiens, Fibroblast): 4.82; pIC50 ([7]; Homo sapiens): < 4.00; pIC50 ([8]; Homo sapiens): < 4.00; pIC50 (U-CH2 chordoma cell line [9]; Homo sapiens, UCH2, n = 4, 72 h): 4.18 |
| 7.22 | C#Cc1cccc(Nc2ncnc3cc(OC)c(OC)cc23)c1F [Compound 43] | 0.059 | 0.0093 | 0.56 | 0.38 | 0.28 | 0.10 | 0.59 | 0.024 | 0.33 | – | – | 5.70 | < 4.00 | 4.24 | 4.92 | 5.24 | < 4.00 | 5.15 | – |
| 7.52 | C#Cc1cc(Nc2ncnc3cc(OC)c(OC)cc23)ccc1F [Compound 44] | 0.027 | 0.83 | 0.40 | 0.054 | 0.15 | 0.44 | 0.18 | 0.66 | 0.34 | – | – | < 4.00 | 5.14 | 6.17 | 6.48 | 6.52 | 6.06 | 4.66 | pIC50 (EGFR; in-cell EGFR inhibition): > 7.00 |
